# Test results reported in patent US20030134859A1 (SANKYO COMPANY, LIMITED, priority 2000, published 2003).
# Experiments:
# human PPAR γ 2 [1] = biological target: T1, human PPAR γ 2 (Homo sapiens, UniProt P37231); assay: PPAR γ transcriptional activity, luciferase reporter, test compound alone; type: cell-based; conditions: concentration indicating Emax/2, MG63 cells transfected with pSG5-hPPARg and pGV-P2-PPRE, 24 hr
# T1 construct: expressed in transfected cells; host or cells: human osteosarcoma MG63, transiently co-transfected with pSG5-hPPARg and the reporter pGV-P2-PPRE
# T1 sequence (P37231 1-505): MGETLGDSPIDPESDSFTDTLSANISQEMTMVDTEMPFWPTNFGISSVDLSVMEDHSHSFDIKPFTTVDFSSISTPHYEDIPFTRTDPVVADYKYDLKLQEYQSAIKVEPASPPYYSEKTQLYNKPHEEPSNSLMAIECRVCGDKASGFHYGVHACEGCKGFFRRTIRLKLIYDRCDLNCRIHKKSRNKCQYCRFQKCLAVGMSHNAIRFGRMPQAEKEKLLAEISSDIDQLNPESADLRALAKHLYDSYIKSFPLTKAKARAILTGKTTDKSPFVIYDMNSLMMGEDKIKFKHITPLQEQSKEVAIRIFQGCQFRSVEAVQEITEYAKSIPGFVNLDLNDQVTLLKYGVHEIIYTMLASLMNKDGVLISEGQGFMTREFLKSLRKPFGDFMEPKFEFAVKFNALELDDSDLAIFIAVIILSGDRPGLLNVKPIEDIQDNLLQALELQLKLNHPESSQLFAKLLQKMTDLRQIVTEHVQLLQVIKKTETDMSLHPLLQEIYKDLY
# Method: The primers of the polymerase chain reaction (hereinafter “PCR”) were designed according to the gene sequence of human PPAR γ 2 (GenBANK accession No. D83233). In order to insert the genes into the BamHI site of the plasmid pSG5 ([…] CLONING SYSTEMS), Bgl II sites were added upstream and downstream of the genes encoding human PPAR γ 2 protein. For this, 2 kinds of polynucleotides shown in the sequence numbers 1 and 2 in the sequence table described below (hereinafter “S1” and “AS1”, respectively) were used as PCR primers.
# In order to determine transcriptional activity via PPAR γ, 2 kinds of polynucleotides represented in sequence numbers 3 and 4 in the sequence table described below (hereinafter “S2” and “AS2”, respectively) were used for construction of the reporter plasmid having PPAR responsive element. The DNA fragment inserted was designed based on the gene sequence in the promoter region of rat acylCo-A oxidase (J. D. Tugwood, EMBO J., 11 (2), pp433-439 (1992)). For insertion of the DNA fragment into the reporter plasmid pGV-P2 (TOYO INK MFG CO., LTD), a NheI site and an XhoI site were added to the S2 and AS2, respectively.
# Using cDNA library (Clontech) derived from human adipose tissue as a template, DNA oligomers S1 and AS1 that were synthesized in the procedure 1 as primers and Ex-Taq™ (TAKARA BIO INC.) as a thermostable DNA polymerase-PCR was carried out. As a result of the PCR, the c.a. 1500 bps DNA fragments were amplified. Each cycle consisted of incubation at 94° C. for 1 min for denaturation of the template, then at 55° C. for 30 sec for annealing of DNA oligomers the PCR primer, and then at 72° C. for 30 sec for extension of the chain. The obtained DNA fragments with approximately 1500 base pairs were digested at the Bgl II sites and were inserted into BamHI sites of pSG5. Thus a human PPAR γ expression plasmid named pSG5-hPPAR g was obtained. The nucleotide sequence of the inserted DNA fragment was confirmed to be identical sequence to the human PPAR γ 2 reported by the dideoxy method.
# Vector pGV-P2 digestion products was prepared by digestion using the restriction enzymes, NheI and XhoI, and purified by 1.0% agarose-gel electrophoresis. The DNA oligomers, S2 and AS2 obtained in Procedure 2, were mixed together and were incubated in a hot bath at 94° C. for 1 min. After the annealing was partially broken, they were further incubated at 25° C. for 1 hr. Thus double-stranded DNA with annealing of S2 and AS2 was formed. Then, the terminus of the double-stranded DNA with annealing of S2 and AS2 was phosphorylated with DNA polynucleotide kinase (TOYOBO CO., LTD). After that, it was ligated to the pGV-P2 digestion products which were prepared previously using the NheI site and XhoI site. Thus the reporter plasmid pGV-P2-PPRE was obtained.
# Using the plasmid obtained by the procedures 3 and 4, transformation of Escherichia coli HB-101 strain was carried out by conventional methods. HB-101 strain having the plasmid was incubated in L-broth medium (containing 10 g of trypton (Difco), 5 g of yeast extract (Difco), 5 g of sodium chloride in 1 L of aqueous solution) containing 100 μg/ml of ampicillin at 37° C. for 17 hrs. Then, each plasmid was purified by the alkaline-SDS method and employed for the gene transfection to mammalian cells. After mixing the pSG5-hPPARg, PGV-P2-PPRE and LipofectAMINE reagent (GIBCO BRL), the human osteosarcoma MG63 was transiently transfected. Then the cells were recovered. The recovered cells were plated on a 96-well plate so as to be 30,000 cells/well and cultured in a CO2 incubator (NAPCO) at 37° C. for 24 hr under the condition of 5% CO2, 95%-RH.
# Various concentrations of the test compound alone were added to culturing medium of the cells prepared in the Procedure 5. After 24 hr of culturing, LT2.0 (TOYO INK MFG CO., LTD), a luciferase substrate, was added to the medium free culture plate. […]
# human PPAR γ 2 [2] = biological target: T1, human PPAR γ 2; assay: Inhibitory activity against PPAR γ transcription in the presence of agonist compound A, luciferase reporter; type: cell-based; conditions: in the presence of 10 nM compound A (agonist); MG63 cells transfected with pSG5-hPPARg and pGV-P2-PPRE; 24 hr
SMILES,EC50 (human PPAR γ 2 [1]),IC50 (human PPAR γ 2 [2])
"Cc1ccc(NC(=O)c2cc([N+](=O)[O-])ccc2Cl)cc1 [Example 1, N-(4-Methylphenyl)-(2-chloro-5-nitrophenyl)carboxamide]",220 nM,33 nM
"O=C(Nc1ccc(-c2ccccc2)cc1)c1cc([N+](=O)[O-])ccc1Cl [Example 2, N-(4-Phenylphenyl)-(2-chloro-5-nitrophenyl)carboxamide]",840 nM,1.9 nM
"Cc1cnc(NC(=O)c2cc([N+](=O)[O-])ccc2Cl)s1 [Example 4, N-(5-Methylthiazol-2-yl)-(2-chloro-5-nitrophenyl)carboxamide]",15 nM,120 nM
"O=C(Nc1cccc(-c2ccccc2)c1)c1cc([N+](=O)[O-])ccc1Cl [Example 5, N-(3-Phenylphenyl)-(2-chloro-5-nitrophenyl)carboxamide]",400 nM,82 nM
"COc1ccc(NC(=O)c2cc([N+](=O)[O-])ccc2Cl)cc1-c1ccccc1 [Example 6, N-(4-Methoxy-3-phenyl)phenyl-(2-chloro-5-nitrophenyl)carboxamide]",34 nM,160 nM
"O=C(Nc1ccccc1-c1ccccc1)c1cc([N+](=O)[O-])ccc1Cl [Example 7, N-(2-Phenylphenyl)-(2-chloro-5-nitrophenyl)carboxamide]",270 nM,
"O=C(Nc1ccc(-c2ccccn2)cc1)c1cc([N+](=O)[O-])ccc1Cl [Example 8, N-[4-(2-Pyridyl)phenyl]-(2-chloro-5-nitrophenyl)carboxamide]",260 nM,5.9 nM
"CCCCCc1ccc(NC(=O)c2cc([N+](=O)[O-])ccc2Cl)cc1 [Example 16, N-(4-Pentylphenyl)-(2-chloro-5-nitrophenyl)carboxamide]",34 nM,7.5 nM
"CCOC(=O)c1ccc(NC(=O)c2cc([N+](=O)[O-])ccc2Cl)cc1 [Example 26, N-(4-Ethoxycarbonylphenyl)-(2-chloro-5-nitrophenyl)carboxamide]",2.1 nM,6.3 nM
"CC(C)(C)c1cc(NC(=O)c2cc([N+](=O)[O-])ccc2Cl)cc(C(C)(C)C)c1O [Example 29, N-(3,5-Di-t-butyl-4-hydroxyphenyl)-(2-chloro-5-nitrophenyl)carboxamide]",4.4 nM,230 nM
"O=C(Nc1cccc(NS(=O)(=O)c2ccccc2)c1)c1cc([N+](=O)[O-])ccc1Cl [Example 30, N-(3-Benzensulfonylaminophenyl)-(2-chloro-5-nitrophenyl)carboxamide]",1.9 nM,12 nM
"CC(C)(C)OC(=O)Nc1cccc(-c2csc(NC(=O)c3cc([N+](=O)[O-])ccc3Cl)n2)c1 [Example 234, N-[4-(3-tert-Butoxycarbonylaminophenyl)thiazol-2-yl]-(2-chloro-5-nitrophenyl)carboxamide]",,19 nM

# Further lines, results first:
EC50 (human PPAR γ 2 [1]),IC50 (human PPAR γ 2 [2]),SMILES
25 nM,30 nM,"O=C(Nc1nc(-c2ccccc2)cs1)c1cc([N+](=O)[O-])ccc1Cl [Example 35, N-(4-Phenylthiazol-2-yl)-(2-chloro-5-nitrophenyl)carboxamide]"
510 nM,15 nM,"O=C(Nc1nc(-c2cccnc2)cs1)c1cc([N+](=O)[O-])ccc1Cl [Example 37, N-[4-(3-Pyridyl)thiazol-2-yl)-(2-chloro-5-nitrophenyl)carboxamide]"
250 nM,45 nM,"O=C(Nc1nc(-c2ccccn2)cs1)c1cc([N+](=O)[O-])ccc1Cl [Example 38, N-[4-(2-Pyridyl)thiazol-2-yl)-(2-chloro-5-nitrophenyl)carboxamide]"
260 nM,,"O=C(Nc1cccc2cccnc12)c1cc([N+](=O)[O-])ccc1Cl [Example 57, N-(8-Quinolinyl)-(2-chloro-5-nitrophenyl)carboxamide]"
120 nM,,"COC(=O)c1sccc1NC(=O)c1cc([N+](=O)[O-])ccc1Cl [Example 66, N-(2-Methoxycarbonylthiophen-3-yl)-(2-chloro-5-nitrophenyl)carboxamide]"
,190 nM,"CCCCCCCCN(CC)c1ccc(-c2ccc(NC(=O)c3cc([N+](=O)[O-])ccc3Cl)cc2)cc1 [Example 225, N-[4-[4-(N-Ethyl-N-octylamino)phenyl]phenyl]-(2-chloro-5-nitrophenyl)carboxamide]"
,130 nM,"O=C(Nc1ccc(N2CCN(C(=O)c3ccncc3)CC2)cc1)c1cc([N+](=O)[O-])ccc1Cl [Example 228, N-[4-[4-(Pyridin-4-ylcarbonyl)piperazin-1-yl]phenyl]-(2-chloro-5-nitrophenyl)carboxamide]"
,19 nM,"O=C(Nc1ccc(CCO)cc1)c1cc([N+](=O)[O-])ccc1Cl [Example 230, N-[4-(2-Hydroxyethyl)phenyl]-(2-chloro-5-nitrophenyl)carboxamide]"
,60 nM,"O=C(Nc1ccc(-n2ccnc2)cc1)c1cccc(NC(=O)c2cc([N+](=O)[O-])ccc2Cl)c1 [Example 231, N-[[3-[4-(Imidazol-1-yl)phenyl]aminocarbonyl]phenyl]-(2-chloro-5-nitrophenyl)carboxamide]"
,28 nM,"Nc1nc(-c2cccc(NC(=O)c3cc([N+](=O)[O-])ccc3Cl)c2)cs1 [Example 233, N-[3-(2-Amiothiazol-4-yl)phenyl]-(2-chloro-5-nitrophenyl)carboxamide]"
,19 nM,"CS(=O)(=O)N(c1ccc(-c2ccc(NC(=O)c3cc([N+](=O)[O-])ccc3Cl)cc2)cc1)S(C)(=O)=O [Example 235, N-[4-[4-(N,N-Dimethanesulfonylamino)phenyl]phenyl]-(2-chloro-5-nitrophenyl)carboxamide]"
,25 nM,"O=C(Nc1ccc(-c2ccc(NC(=S)Nc3ccncc3)cc2)cc1)c1cc([N+](=O)[O-])ccc1Cl [Example 258, N-[4-[4-[(Pyridin-4-yl)aminothiocarbonylamino]phenyl]phenyl]-(2-chloro-5-nitrophenyl)carboxamide]"
,60 nM,"NCCc1ccc(NC(=O)c2cc([N+](=O)[O-])ccc2Cl)cc1 [Example 267, N-[4-(2-Aminoethyl)phenyl]-(2-chloro-5-nitrophenyl)carboxamide]"
,13 nM,"O=C(Nc1ccc(CCNC(=S)Nc2cccnc2)cc1)c1cc([N+](=O)[O-])ccc1Cl [Example 273, N-[4-[2-(Pyridin-3-yl)aminothiocarbonylaminoethyl]phenyl]-(2-chloro-5-nitrophenyl)carboxamide]"
